Source: patent US12252488B2 (Nimbus Saturn, Inc., priority 2021, dated 2025)

The molecules below were run against T1, HPK1 (Homo sapiens, UniProt Q92918) (assay: HPK1 biochemical enzyme assay (microfluidic mobility shift assay)). Conditions: 1000 uM (1 mM) ATP; Caliper mobility shift; 1.5 nM HPK1; 30 min preincubation; read-out: HPK1 1000UMATP caliper IC50.
T1 construct: purchased Invitrogen
How it was run: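 IC50 values, grouped into activity categories, come from 10-point titrations (top final 3 μM) preincubated 30 min with 1.5 nM enzyme and substrate at pH 7.4. ATP (1 mM), substrate (1 μM) and MgCl2 (5 mM) then added; after 60 min at RT, product separated by microfluidic mobility shift.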

T1 sequence (Q92918 whole entry): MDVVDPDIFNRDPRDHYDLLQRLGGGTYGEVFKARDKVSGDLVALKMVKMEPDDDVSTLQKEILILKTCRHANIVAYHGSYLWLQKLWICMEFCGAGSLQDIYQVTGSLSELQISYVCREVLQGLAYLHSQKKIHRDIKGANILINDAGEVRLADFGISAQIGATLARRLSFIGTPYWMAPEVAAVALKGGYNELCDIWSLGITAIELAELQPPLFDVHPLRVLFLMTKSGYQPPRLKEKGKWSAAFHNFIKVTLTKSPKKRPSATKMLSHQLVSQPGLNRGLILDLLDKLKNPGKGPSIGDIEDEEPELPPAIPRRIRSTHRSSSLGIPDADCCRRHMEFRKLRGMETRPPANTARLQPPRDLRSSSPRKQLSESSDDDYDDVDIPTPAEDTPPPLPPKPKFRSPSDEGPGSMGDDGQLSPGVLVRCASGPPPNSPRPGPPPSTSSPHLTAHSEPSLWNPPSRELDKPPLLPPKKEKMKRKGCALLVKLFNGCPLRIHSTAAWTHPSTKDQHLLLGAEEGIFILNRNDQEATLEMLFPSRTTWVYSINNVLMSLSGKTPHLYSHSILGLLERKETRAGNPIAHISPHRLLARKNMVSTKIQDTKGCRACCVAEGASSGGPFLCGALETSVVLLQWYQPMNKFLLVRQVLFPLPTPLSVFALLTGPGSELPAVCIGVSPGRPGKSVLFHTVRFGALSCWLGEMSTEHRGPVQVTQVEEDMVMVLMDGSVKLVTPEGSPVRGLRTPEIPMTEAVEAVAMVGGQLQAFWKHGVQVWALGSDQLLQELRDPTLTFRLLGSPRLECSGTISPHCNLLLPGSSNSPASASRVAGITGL

Row | Structure (SMILES) | IC50
1 | O=C(c1ccc(F)c(-c2cc(Nc3ccc(N4CCC(O)CC4)cn3)c3c(=O)[nH]ccc3n2)c1)N1CCCC1 [I-93, 2-[2-fluoro-5-(pyrrolidine-1-carbonyl)phenyl]-4-[[5-(4-hydroxy-1-piperidyl)-2-pyridyl]amino]-6H-1,6-naphthyridin-5-one] | ≤ 100 nM
2 | O=C(c1ccc(F)c(-c2cc(Nc3ccc(N4CCC(O)CC4)cn3)c3c(=O)[nH]ccc3n2)c1)N1CCCCC1 [I-94, 2-[2-fluoro-5-(piperidine-1-carbonyl)phenyl]-4-[[5-(4-hydroxy-1-piperidyl)-2-pyridyl]amino]-6H-1,6-naphthyridin-5-one] | ≤ 100 nM
3 | O=C(c1ccc(F)c(-c2cc(Nc3ccc(N4CCC(O)CC4)cn3)c3c(=O)[nH]ccc3n2)c1)N1CCC1 [I-95, 2-[5-(azetidine-1-carbonyl)-2-fluoro-phenyl]-4-[[5-(4-hydroxy-1-piperidyl)-2-pyridyl]amino]-6H-1,6-naphthyridin-5-one] | 100 to 1000 nM
4 | CC(C)(C)c1ccc(F)c(-c2cc(Nc3ccc(N4CCC(O)CC4)cn3)c3c(=O)[nH]ccc3n2)c1 [I-96, 2-(5-tert-butyl-2-fluoro-phenyl)-4-[[5-(4-hydroxy-1-piperidyl)-2-pyridyl]amino]-6H-1,6-naphthyridin-5-one] | 100 to 1000 nM
5 | O=c1[nH]ccc2nc(-c3cc(C4CCC4)ccc3F)cc(Nc3ccc(N4CCC(O)CC4)cn3)c12 [I-97, 2-(5-cyclobutyl-2-fluoro-phenyl)-4-[[5-(4-hydroxy-1-piperidyl)-2-pyridyl]amino]-6H-naphthyridin-5-one] | 100 to 1000 nM
6 | N#CCc1ccc(F)c(-c2cc(Nc3ccc(N4CCC(O)CC4)cn3)c3c(=O)[nH]ccc3n2)c1 [I-98, 2-[4-fluoro-3-[4-[[5-(4-hydroxy-1-piperidyl)-2-pyridyl]amino]-5-oxo-6H-1,6-naphthyridin-2-yl]phenyl] acetonitrile] | ≤ 100 nM
7 | CC(C)c1cccc(-c2cc(Nc3ccc(N4CCC(O)CC4)cn3)c3c(=O)[nH]ccc3n2)c1 [I-99, 4-[[5-(4-hydroxy-1-piperidyl)-2-pyridyl]amino]-2-(3-isopropyl-phenyl)-6H-1,6-naphthyridin-5-one] | 100 to 1000 nM
8 | COc1cc(OC)cc(-c2cc(Nc3ccc(N4CCC(O)CC4)cn3)c3c(=O)[nH]ccc3n2)c1 [I-100, 2-(3,5-dimethoxyphenyl)-4-[[5-(4-hydroxy-1-piperidyl)-2-pyridyl]amino]-6H-1,6-naphthyridin-5-one] | ≤ 100 nM
9 | CC(C)c1ccc(Cl)c(-c2cc(Nc3ccc(N4CCC(O)CC4)cn3)c3c(=O)[nH]ccc3n2)c1 [I-101, 2-(2-chloro-5-isopropyl-phenyl)-4-[[5-(4-hydroxy-1-piperidyl)-2-pyridyl]amino]-6H-1,6-naphthyridin-5-one] | ≤ 100 nM
10 | CC1(c2ccc(F)c(-c3cc(Nc4ccc(N5CCC(O)CC5)cn4)c4c(=O)[nH]ccc4n3)c2)CC1 [I-102, 2-[2-fluoro-5-(1-methylcyclo-propyl)phenyl]-4-[[5-(4-hydroxy-1-piperidyl)-2-pyridyl]amino]-6H-1,6-naphthyridin-5-one] | ≤ 100 nM
11 | O=c1[nH]ccc2nc(-c3cc(C4COC4)ccc3F)cc(Nc3ccc(N4CCC(O)CC4)cn3)c12 [I-103, 2-[2-fluoro-5-(oxetan-3-yl)phenyl]-4-[[5-(4-hydroxy-1-piperidyl)-2-pyridyl]amino]-6H-1,6-naphthyridin-5-one] | ≤ 100 nM
12 | CC(C)(C#N)c1ccc(F)c(-c2cc(Nc3ccc(N4CCC(O)CC4)cn3)c3c(=O)[nH]ccc3n2)c1 [I-104, 2-[4-fluoro-3-[4-[[5-(4-hydroxy-1-piperidyl)-2-pyridyl]amino]-5-oxo-6H-1,6-naphthyridin-2-yl]phenyl]-2-methyl-propane-nitrile] | > 1000 nM
13 | N#CC1(c2ccc(F)c(-c3cc(Nc4ccc(N5CCC(O)CC5)cn4)c4c(=O)[nH]ccc4n3)c2)CC1 [I-105, 1-[4-fluoro-3-[4-[[5-(4-hydroxy-1-piperidyl)-2-pyridyl]amino]-5-oxo-6H-1,6-naphthyridin-2-yl]phenyl] cyclo-propane-carbonitrile] | > 1000 nM
